Measurements published in a compilation of properties of binary mixtures (doi:10.1016/j.jct.2017.05.012).

Test: xn = mol fraction of the nth substance listed
Conditions: 101 kPa

CCCCCCCCOS(=O)(=O)[O-].CC[n+]1ccn(C)c1 + O
Conditions	electrical conductivity [S/m]	viscosity [mPa·s]
268.15 K, x2 = 0.7822	0.277	–
268.15 K, x2 = 0.8104	0.331	–
268.15 K, x2 = 0.8384	0.406	–
273.15 K, x2 = 0.7822	0.355	–
273.15 K, x2 = 0.8104	0.417	–
273.15 K, x2 = 0.8384	0.529	–
278.15 K, x2 = 0.7822	0.447	–
278.15 K, x2 = 0.8104	0.522	–
278.15 K, x2 = 0.8384	0.653	–
283.15 K, x2 = 0.7822	0.552	–
283.15 K, x2 = 0.8104	0.642	–
283.15 K, x2 = 0.8237	0.677	–
283.15 K, x2 = 0.8384	0.799	–
288.15 K, x2 = 0.8104	0.772	–
288.15 K, x2 = 0.8237	0.819	–
288.15 K, x2 = 0.8384	0.956	–
290.15 K, x2 = 0.8384	1.02	–
291.15 K, x2 = 0.8237	0.91	–
291.15 K, x2 = 0.8384	1.05	–
292.15 K, x2 = 0.8104	0.89	–
293.15 K, x2 = 0.7822	0.801	–
293.15 K, x2 = 0.8104	0.921	–
293.15 K, x2 = 0.8237	0.971	–
293.15 K, x2 = 0.8384	1.13	–
294.15 K, x2 = 0.8104	0.951	–
296.15 K, x2 = 0.8237	–	73.9
297.15 K, x2 = 0.7822	–	76.7
297.15 K, x2 = 0.8384	–	62.9
298.15 K, x2 = 0.7822	0.949	72.6
298.15 K, x2 = 0.8104	1.07	67.2
298.15 K, x2 = 0.8384	1.31	59.6
299.15 K, x2 = 0.8237	–	60.2
300.15 K, x2 = 0.8237	–	57.1
303.15 K, x2 = 0.7822	1.11	55.9
303.15 K, x2 = 0.8104	1.25	51.7
308.15 K, x2 = 0.7822	–	43.7
308.15 K, x2 = 0.8104	–	40.4
308.15 K, x2 = 0.8237	–	38.33
308.15 K, x2 = 0.8384	–	36.02
313.15 K, x2 = 0.7822	1.47	34.66
313.15 K, x2 = 0.8237	1.73	–
313.15 K, x2 = 0.8384	1.98	28.64
318.15 K, x2 = 0.8237	–	24.55
323.15 K, x2 = 0.7822	1.89	22.8
323.15 K, x2 = 0.8104	2.09	21.03
323.15 K, x2 = 0.8384	2.55	18.8
328.15 K, x2 = 0.8237	–	16.51
333.15 K, x2 = 0.8104	2.66	14.42
333.15 K, x2 = 0.8384	3.13	12.91
338.15 K, x2 = 0.8237	–	11.57
343.15 K, x2 = 0.8104	3.17	10.28
343.15 K, x2 = 0.8237	3.28	–
343.15 K, x2 = 0.8384	3.76	9.26
353.15 K, x2 = 0.8237	3.77	–
358.15 K, x2 = 0.8237	3.99	–
363.15 K, x2 = 0.8237	4.35	–
